Data as given in patent US20180030500A1, “ENRICHMENT AND SELECTIVE CULTURE OF MYCOBACTERIA” (priority 2015, published 2018).

Assays:
Assay in all cases: Sensitivity to C-390 in medium W
Assay type in all cases: cell-based
Design in all cases: key: NG: no growth; Tr: traces
[1] = test system: Aspergillus fumigatus (Anon)
Protocol: (§1) An evaluation of the sensitivity to C-390 of various microorganisms capable of infecting the airways was carried out. This evaluation was carried out using medium W of example 4, containing a variable concentration of C-390. Table 10 below collates the observations collected with regard to the intensity of growth of the strains tested as a function of the C-390 concentration of the medium. The abbreviations NG (“no growth”) and Tr (“traces”) signify that no growth was observed or only a few not very significant traces.

[2] = test system: Burkholderia ambifaria (LMG 19467)
Protocol: as §1

[3] = test system: Burkholderia anthina (20983)
Protocol: as §1

[4] = test system: Burkholderia cepacia (LMG 18821)
Protocol: as §1

[5] = test system: Burkholderia contaminans (40007X)
Protocol: as §1

[6] = test system: Burkholderia multivorans (645914C)
Protocol: as §1

[7] = test system: Burkholderia multivorans (672832Y)
Protocol: as §1

[8] = test system: Burkholderia pyrrocinia (LMG 21824)
Protocol: as §1

[9] = test system: Burkholderia vietnamiensis (744978N)
Protocol: as §1

[10] = test system: Burkholderia vietnamiensis (LMG 18835)
Protocol: as §1

[11] = test system: Scedosporium apiospermum (Anon)
Protocol: as §1

CCN(CC)c1ccc(C2(Cl)c3ccccc3N(c3ccccc3)c3ccccc32)cc1 [Medium C-390, 9-chloro-9-(4′-diethylamino)phenyl-9,10-dihydro-10-phenylacridine]
intensity of growth ([1]; C-390 0.5 mg/l in medium W): Tr
intensity of growth ([1]; C-390 1 mg/l in medium W): NG
intensity of growth ([1]; C-390 2 mg/l in medium W): NG
intensity of growth ([1]; C-390 4 mg/l in medium W): NG
intensity of growth ([1]; C-390 8 mg/l in medium W): NG
intensity of growth ([1]; C-390 16 mg/l in medium W): NG
intensity of growth ([1]; C-390 32 mg/l in medium W): NG
intensity of growth ([2]; C-390 0.5 mg/l in medium W): NG
intensity of growth ([2]; C-390 1 mg/l in medium W): NG
intensity of growth ([2]; C-390 2 mg/l in medium W): NG
intensity of growth ([2]; C-390 4 mg/l in medium W): NG
intensity of growth ([2]; C-390 8 mg/l in medium W): NG
intensity of growth ([2]; C-390 16 mg/l in medium W): NG
intensity of growth ([2]; C-390 32 mg/l in medium W): NG
intensity of growth ([3]; C-390 1 mg/l in medium W): Tr
intensity of growth ([3]; C-390 2 mg/l in medium W): NG
intensity of growth ([3]; C-390 4 mg/l in medium W): NG
intensity of growth ([3]; C-390 8 mg/l in medium W): NG
intensity of growth ([3]; C-390 16 mg/l in medium W): NG
intensity of growth ([3]; C-390 32 mg/l in medium W): NG
intensity of growth ([4]; C-390 16 mg/l in medium W): NG
intensity of growth ([4]; C-390 32 mg/l in medium W): NG
intensity of growth ([5]; C-390 2 mg/l in medium W): Tr
intensity of growth ([5]; C-390 4 mg/l in medium W): NG
intensity of growth ([5]; C-390 8 mg/l in medium W): NG
intensity of growth ([5]; C-390 16 mg/l in medium W): NG
intensity of growth ([5]; C-390 32 mg/l in medium W): NG
intensity of growth ([6]; C-390 2 mg/l in medium W): NG
intensity of growth ([6]; C-390 4 mg/l in medium W): NG
intensity of growth ([6]; C-390 8 mg/l in medium W): NG
intensity of growth ([6]; C-390 16 mg/l in medium W): NG
intensity of growth ([6]; C-390 32 mg/l in medium W): NG
intensity of growth ([7]; C-390 4 mg/l in medium W): Tr
intensity of growth ([7]; C-390 8 mg/l in medium W): NG
intensity of growth ([7]; C-390 16 mg/l in medium W): NG
intensity of growth ([7]; C-390 32 mg/l in medium W): NG
intensity of growth ([8]; C-390 4 mg/l in medium W): NG
intensity of growth ([8]; C-390 8 mg/l in medium W): NG
intensity of growth ([8]; C-390 16 mg/l in medium W): NG
intensity of growth ([8]; C-390 32 mg/l in medium W): NG
intensity of growth ([9]; C-390 1 mg/l in medium W): Tr
intensity of growth ([9]; C-390 2 mg/l in medium W): NG
intensity of growth ([9]; C-390 4 mg/l in medium W): NG
intensity of growth ([9]; C-390 8 mg/l in medium W): NG
intensity of growth ([9]; C-390 16 mg/l in medium W): NG
intensity of growth ([9]; C-390 32 mg/l in medium W): NG
intensity of growth ([10]; C-390 1 mg/l in medium W): NG
intensity of growth ([10]; C-390 2 mg/l in medium W): NG
intensity of growth ([10]; C-390 4 mg/l in medium W): NG
intensity of growth ([10]; C-390 8 mg/l in medium W): NG
intensity of growth ([10]; C-390 16 mg/l in medium W): NG
intensity of growth ([10]; C-390 32 mg/l in medium W): NG
intensity of growth ([11]; C-390 2 mg/l in medium W): NG
intensity of growth ([11]; C-390 4 mg/l in medium W): NG
intensity of growth ([11]; C-390 8 mg/l in medium W): NG
intensity of growth ([11]; C-390 16 mg/l in medium W): NG
intensity of growth ([11]; C-390 32 mg/l in medium W): NG
